Read-outs that look alike come from different tables or passages of the source. Blank lines part the entries; values can stand above or below the compound they belong to.
Assays:
PLK1 kinase = biological target: T1, PLK1 kinase (Homo sapiens, UniProt P53350); experiment: Inhibitory activity on PLK1 kinase; assay type: biochemical; conditions: for Imax: maximum effect caused by the compound at the test concentration
T1 construct: purchased Carnabio (Carna Biosciences) 05-157
Description: Detection solution PerkinElmer #TRF0218-M
Detection instrument PerkinElemer EnVision
a. Using the Echo machine, the compounds to be tested were diluted by 1:3 on a 384-well plate, and the highest concentration was 1 μM, with a total of 10 concentration points, and each concentration was tested in duplicate wells.
b. 5 μL/well of PLK1 kinase and peptide substrate mixture were added to the assay plate (containing controls).
d. The reaction was initiated by adding 5 μL/well of ATP solution;
e. The assay plate was centrifuged at 1000 rpm for about 15 seconds, a film was used to seal the assay plate which was incubated at 23° C. for a period of time;
f. A detection solution was added to all wells of the assay plate;
g. The assay plate was centrifuged at 1000 rpm for approximately 15 seconds, a film was used to seal the assay plate which was incubated at 23° C. for 60 min.
h. The assay plate was read on EnVision. The test results were analyzed using XLFIT5 software.

[1] = Metabolic stability in rat liver microsomes; assay type: in vitro ADME
Description: (§1) a. Preparation of phosphate buffer: The phosphate buffer powder was dissolved in 100 mL of pure water to prepare a phosphate buffer solution with a pH of 7.4 and a concentration of 100 mM, which was stored in a 4° C. refrigerator for later use.
(§2) b. All samples as well as the reference testosterone were dissolved in DMSO to obtain a 10 mM stock solution. The 10 mM stock solution was diluted to 100 μM with acetonitrile to obtain a working solution for later use.
(§3) c. Preparation of liver microsome working solution: Each of the mouse, rat and human liver microsome stock solutions (at concentration of 20 mg/mL) was taken and diluted to 0.56 mg/mL with 100 mM phosphate buffer solution to obtain the liver microsome working solution.
(§4) d. Preparation of solution: An appropriate amount of MgCl2 was weighed and used to prepare a MgCl2 solution at a concentration of 60 mM using 100 mM phosphate buffer solution. An appropriate amount of NADPH was weighed and used to prepare a NADPH solution at a concentration of 20 mM using 100 mM phosphate buffer solution. An equal volume of 60 mM MgCl2 solution was added to prepare an NADPH working solution containing 10 mM NADPH and 30 mM MgCl2. An acetonitrile solution containing 20 ng/mL tolbutamide was prepared as the stop solution.
(§5) e. Liver microsome incubation: 2 μL of each compound and the positive drug testosterone working solution were added to 178 μL of liver microsome working solution (0.56 mg/mL), mixed gently, and pre-incubated in a vibrating constant temperature water bath pot at 37° C. for 10 min. After adding 20 μL of NADPH working solution, the mixture was placed in a vibrating constant temperature water bath pot at 37° C. and timed incubation was started for 5, 10, 20, 30 and 60 min.
(§6) f. Stopping reaction: After the corresponding time of incubation, 400 μL of stop solution was added to stop the reaction, and then the sample was immediately shaken for 1 min. The sample was centrifuged at 13500 rpm for 10 min at 10° C. After centrifugation, the supernatant was removed, diluted with water according to the needs of each compound, and analyzed by LC-MS. For the 0-minute sample, the stop solution was first added and mixed evenly with the liver microsomes, and then the NADPH working solution was added. For the negative control sample, 20 μL of 30 mM MgCl2 solution was added instead of the NADPH working solution.
(§7) T1/2 and CLint(mic) were calculated by the following formula.
(§8) [formula] [formula] • CLint(mic)=0.693/T1/2/liver microsomal protein concentration during incubation (mg/mL) • CLint(ver)=CLint(mic)*liver microsomal protein (mg)/liver weight (g)*liver weight to body weight ratio
(§9) Liver microsomal protein (mg)/liver weight (g): the value is 45 in both animal and human species.
(§10) Liver weight to body weight ratio: the parameters for mice, rats and humans are 88, 40 and 20 g/kg respectively.

[2] = Metabolic stability in mouse liver microsomes; assay type: in vitro ADME
Description: as §1, §2, §3, §4, §5, §6, §7, §8, §9, §10

HCT116 cells = experiment: Inhibitory activity on HCT116 cell proliferation (ATPlite); assay type: cell-based; conditions: Homo sapiens
Description: Cell culture medium: RPMI1640+10% FBS (GBICO)
Cell culture plate: 96-well plate (Shanghai Jingan Biotechnology Co., Ltd.)
Detection kit: ATPlite 1step Luminescence (PerkinElmer)
Detection instrument: BioTek multifunctional microplate reader
2. Test method: HCT116 cells in the logarithmic growth phase were seeded into a white-wall clear-bottom 96-well plate at a density of 720 cells per well, and cultured overnight in a 37° C., 5% CO2 incubator. […] After adding the drug, culturing was continued for 72 h in a 37° C., 5% CO2 incubator.
GraphPad Prism 7.0 was used to process the data, the cell inhibition rate curve was obtained and IC50 was calculated.

[3] = Metabolic stability in human liver microsomes; assay type: in vitro ADME
Description: as §1, §2, §3, §4, §5, §6, §7, §8, §9, §10

T1 sequence (P53350 whole entry): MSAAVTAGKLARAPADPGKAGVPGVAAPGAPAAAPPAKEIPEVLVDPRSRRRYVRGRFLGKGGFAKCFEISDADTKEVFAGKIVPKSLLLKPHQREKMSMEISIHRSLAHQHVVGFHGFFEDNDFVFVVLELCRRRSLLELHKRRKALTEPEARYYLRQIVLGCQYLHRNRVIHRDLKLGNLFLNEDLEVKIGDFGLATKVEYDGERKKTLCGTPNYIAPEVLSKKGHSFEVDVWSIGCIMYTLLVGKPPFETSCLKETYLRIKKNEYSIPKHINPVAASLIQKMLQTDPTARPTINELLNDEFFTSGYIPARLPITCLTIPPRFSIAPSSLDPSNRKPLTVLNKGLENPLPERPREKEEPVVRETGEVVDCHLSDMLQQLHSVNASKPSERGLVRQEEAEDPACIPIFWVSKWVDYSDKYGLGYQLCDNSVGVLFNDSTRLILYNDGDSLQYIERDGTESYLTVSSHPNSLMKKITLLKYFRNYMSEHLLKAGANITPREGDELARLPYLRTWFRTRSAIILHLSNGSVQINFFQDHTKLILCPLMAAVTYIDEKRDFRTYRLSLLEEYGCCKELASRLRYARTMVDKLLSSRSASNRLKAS

SMILES: CN1CCN(c2ccc(OC(F)(F)F)c(Nc3ncc4ccc5c(C(=O)NO)nn(CCF)c5c4n3)c2)CC1 [Compound 25]
IC50 (PLK1 kinase): 1.12 nM
Imax (PLK1 kinase): 100.23%

SMILES: CN1CCN(c2ccc(OC(F)(F)F)c(Nc3ncc4ccc5c(C(N)=O)nn(C6CC6)c5c4n3)c2)CC1 [Compound 27]
IC50 (PLK1 kinase): 0.459 nM
Imax (PLK1 kinase): 100.24%

SMILES: CN1CCN(c2ccc(OC(F)(F)F)c(Nc3ncc4ccc5c(C(=O)NO)nn(CCO)c5c4n3)c2)CC1 [Compound 19]
60 min remaining amount [1]: 11.9%
Clearance rate [1]: Medium
CLint scaled at 1 µM ([1]; pH 7.4): 127 mL/min/kg
half-life at 1 µM ([1]; pH 7.4): 19.6 min
microsomal CLint at 1 µM ([1]; pH 7.4, read-out: CLint(mic)): 70.8 µL/min/mg
60 min remaining amount [2]: 22.0%
Clearance rate [2]: Medium
CLint scaled at 1 µM ([2]; pH 7.4): 192 mL/min/kg
half-life at 1 µM ([2]; pH 7.4): 28.5 min
microsomal CLint at 1 µM ([2]; pH 7.4, read-out: CLint(mic)): 48.6 µL/min/mg
IC50 (HCT116 cells; HCT-116, 72 h): 96 nM
IC50 (PLK1 kinase): 1.06 nM
Imax (PLK1 kinase): 99.97%
60 min remaining amount [3]: 51.9%
Clearance rate [3]: Medium
CLint scaled at 1 µM ([3]; pH 7.4): 19.6 mL/min/kg
half-life at 1 µM ([3]; pH 7.4): 63.6 min
microsomal CLint at 1 µM ([3]; pH 7.4, read-out: CLint(mic)): 21.8 µL/min/mg

SMILES: CN1CCN(c2ccc(OC(F)(F)F)c(Nc3ncc4ccc5c(C(=O)NOCCO)nn(CCF)c5c4n3)c2)CC1 [Compound 30]
IC50 (PLK1 kinase): 0.776 nM
Imax (PLK1 kinase): 99.97%

Imax (PLK1 kinase): 101.08%
SMILES: C[C@@H](Oc1cc(-n2cnc3ccc(CN4CCN(C)CC4)cc32)sc1C(N)=O)c1ccccc1C(F)(F)F [GSK461364, reference compound]

IC50 (HCT116 cells; HCT-116, HCT116 cells, 72 h, read-out: IC50): 924 nM
IC50 (PLK1 kinase; PLK1 kinase, highest concentration 1 μM, 10 points, read-out: IC50): 73.3 nM
Imax (PLK1 kinase): 76.81%
SMILES: CN1CCN(c2ccc(OC(F)(F)F)c(Nc3ncc4c(n3)-c3c(c(C(N)=O)nn3CCO)N(C)C4)c2)CC1 [Compound 5]

SMILES: CN1CCN(c2ccc(OC(F)(F)F)c(Nc3ncc4ccc5c(C(N)=O)cn(CCO)c5c4n3)c2)CC1 [Compound 21]
IC50 (PLK1 kinase): 0.756 nM
Imax (PLK1 kinase): 99.15%

Reference: patent US20260176249A1, “PROTEIN KINASE INHIBITOR, PREPARATION METHOD THEREFOR, AND APPLICATION THEREOF” (SHANDONG LUYE PHARMACEUTICAL CO., LTD., priority 2021, published 2026)
